Laboratory results published in patent publication US5928627A, “Fluorescent chelates as visual tissue specific imaging agents” (The Dow Chemical Company, priority 1997, dated 1999).
Entries after “also recorded” stand apart in the source; their conditions may differ. Read-outs that look alike come from different tables or passages of the source.

How the values were obtained:
[1] = test system: rat bone and intestinal tissues; assay: Tissue fluorescence microscopy/tissue selectivity of Tb chelates in rats
[2] = test system: rat bone and intestinal tissues; details: in vivo
[3] = test system: IEC-6 cells; assay: Cytotoxicity IEC-6 cells; assay type: cell-based
Description: *Average of triplicate counting. Procedure detailed in Ref. 27

[4] = test system: colon adenocarcinoma (1,2 dimethylhydrazine induced tumors); assay: Fluorescence imaging of normal versus neoplastic colon tissue after lavage; assay type: in vivo, Sprague Dawley rat; details: 0.1 mmol/kg, 20 minutes
Method: Tumors were induced in Sprague Dawley rats via injection of 1,2 dimethylhydrazine dihydrochloride and the subsequent feeding of a high fat, meat-based diet. […] One animal with an observable lesion was anesthetized, allowing it to respire during lavage introduction of the fluorescent marker. An aqueous solution of Tb-PTCMB at a concentration of 0.1 mmol/kg animal body weight, was administered to a Sprague Dawley rat using the 1.0 mm working lumen of the micro-endoscope. Introduction of the marker solution was made at the site of the suspect tissue mass with a volume necessary to fill the entire large intestine (method described in U.S. Pat. No. 5,456,245). […]
Upon dissection of the large intestine, a large occlusive mass approximately 4.5 cm by 5.0 cm was found approximately 15 cm from the rectum. […] Four slides from each tissue region were first left unstained for fluorescence microscopy imaging as described below and then stained with Hematoxylin and Eosin (H&E stain). Using standard histological criteria for diagnosis, tissue taken from the suspect site was determined to be adenocarcinoma. […] The tissue taken from a location removed from the abnormality was determined to be normal.
Using an in-house modified microscope, samples from the suspect and remote regions of the animal were imaged. Shown in FIGS. 10C and 11C are the fluorescence images of the identical regions of the same tissues. […]

[5] = test system: HT-29 cells; assay: Cytotoxicity HT-29 cells (Trypan blue); assay type: cell-based; details: 2 mL of 2 mM Tb-PCTMB
Method: HT-29 cell lines were obtained from American Type Culture Collection (ATCC) and maintained in Dulbecco's Modified Eagle Medium (DMEM) with 10% fetal bovine serum. Tree days prior to confluence, the cells were inoculated with 2 mL of 2 mM Tb-PCTMB and allowed to grow to confluence. Two days prior to confluence, the unbound TB-PCTMB was removed with four washings of PBS and the cells were removed from the flask with 3 mL of trypsin. The cell suspension was transferred to a centrifuge tube with 12 mL of growth media and spun a 1000 g for 10 minutes to pellet the cells. The media and the trypsin were removed and the cell suspension was resuspended in 5 mL of media. For ease in counting, 100 μL of the cell suspension was mixed with 100 μL of media in a microfuge tube. Fifty μL of this dilution was mixed with 50 μL of Trypan blue stain and loaded into the hemocytometer. The cells in 5 squares on the hemocytometer were counted where stained cells were dead and unstained cells were alive. Multiplication of the average count per square by the dilution factor (4) gave the number of cells×10^4 per mL. The number of cells reported is the average of three individual counts.

[6] = test system: UMR106 cells; assay: Subcellular uptake fluorescence in UMR106 cells (organelle and membrane smears); assay type: cell-based; details: 2 mL of 2×10^-3 M
Method: UMR106 cells were obtained from American Type Culture Collection and maintained in Basal Eagle Media with 10% fetal bovine serum. Cells were propagated so that 3×10^7 cells were contained in 25 mL. One day prior to confluence, the cells were inoculated with 2 mL of 2×10^-3 M Tb-PCTMP. At confluence, the media and Tb-TCTMP was removed with four washings of PBS. Cells were separated from the flask with 3 mL of trypsin, transferred to a centrifuge tube with 12 mL of media and spun at 1000 g for 10 minutes to pellet the cells. The pellet was resuspended in 2 mL of media and frozen by submersion of the tube into liquid nitrogen. The frozen mixture was scooped out of the tube and transferred to a mortar. To the mixture, an equal weight of sea sand and 10 mL of liquid nitrogen were added. This mixture was ground with a pestle for 30 minutes until liquefied. The resulting mixture was transferred to a centrifuge tube and spun at 10,000 rpm for 15 minutes leaving intact cells, sand and membranes in the pellet and the cytoplasmic organelles in the supernatant. The supernatant was spun at 45,000 rpm for 90 minutes in an ultracentrifuge tube to pellet the organelles. […] Both the membranes and the organelles were smeared onto microscope slides and analyzed using a Zeiss microscope, modified for UV excitation.

[7] = Fluorescence properties of the complexes; assay type: physicochemical; details: excited with a UV lamp
Description: The use of terbium (Tb) or europium (Eu) as the central metal ion to render a tissue specific fluorescent probe is very appealing. Derivatives of this type would be valuable for visual assessment of tissue conditions such as early detection of cancer and would not depend upon protein conjugation to reach their target. Furthermore, concentration of the active fluorescent material could conceivably be much higher than in the case of immunoassays making detection much easier. The present complexes have an excitation band of 250 to 290 nm and a spike emission with peaks at bands of 490 to 510 nm, 540 to 560 nm, 590 to 600 nm and 615 to 635 nm, high quantum efficiency and millisecond relaxation lifetimes which allow signal collection after prompt tissue autofluorescence has subsided and allows data collection outside the range for normal tissue fluorescence. […] Furthermore, chelates derived from this family of macrocyclic ligands are among the most thermodynamically and kinetically inert lanthanide complexes, a paramount consideration for biological studies where metal ion toxicity is of major importance.

[8] = test system: rat bone (femur); assay: Micro-endoscopic fluorescence imaging of rat femur; assay type: in vivo
Description: The optical train used is depicted in FIG. 5. For the resolution studies a 1951 USAF resolution target was used. The resolution target consists of groups of elements (lines) that are a known width, length and distance apart. The lines on the target are made from a black emulsion deposited onto a white positive background (clear glass). The images are obtained by back illuminating the resolution target using an IR filtered xenon discharge lamp. The beam from an optical fiber passes through a diffuser of in-house construction which replaces the 270 nm interference filter (4) shown in FIG. 5. The distance of the scope tip from the target (1.5 mm) was chosen so that the best in-focus image is produced. The image was collected by a 0°, 30° and 60° viewing angle with respect to the central axis of the thin rod lens endoscope. A 10× microscope objective, placed 10 mm from the endoscope, collected, magnified and played the image onto a CCD (5). […] The software produces a graph of light intensity as a function of position across the line pairs. The limiting resolution (LP/mm) is calculated using a aerial image modulation (AIM) plot and is defined as the point where the dI/dx remains constant.
Field of view measurements were made by repositioning the target so that a single line laterally spanned the field of view of the endoscope. The circular field of view is easily calculated knowing the length of the line on the resolution target the represents the diameter of the viewing zone. […]
For analysis of the bone fluorescence, two rats were injected with Tb-PCTMP or Tb-BP2P. […]
For the fluorescence measurements, the instrument in FIG. 5 was modified. […] A 550 nm bandpass filter was placed between the microscope objective (3) and the CCD (5) to select fluorescence and block background light. […]
Upon visual inspection of the high resolution video monitor (7), resolution of 181 LP/mm can be obtained. […] As calculated in a manner similar to Example II, it is possible to estimate the quantity of solute within a particular imaged zone. […]

Question: With `CCCCOP(=O)(O)CN1CCN(CP(=O)(O)OCCCC)Cc2cccc(n2)CN(CP(=O)(O)OCCCC)CC1.[Tb]` [Tb-PCTMB, terbium 3,6,9-tris(methylenephosphonic acid n-butyl ester)-3,6,9,15, tetraazabicyclo[9.3.1]pentadeca-1(15),11,13-triene] as the molecule, how does the tissue uptake/selectivity [1] read?
Answer: Its tissue uptake/selectivity is “substantial hepatobiliary uptake; also recorded: concentrates in the small intestine”.

Question: And the “interactions between the chelate and blood proteins” value [2]?
Answer: Its value is “enhances interactions between the chelate and blood proteins”.

Question: And the “Total Cells” value ([3]; average of triplicate counting, control 5.70 × 10^6)?
Answer: The value was 5.30 × 10^6.

Question: And the “Dead Cells” value ([3]; control 10.5%)?
Answer: Its value is 9.4%.

Question: And the “Live Cells” value ([3]; control 89.5%)?
Answer: Its value is 90.6%.

Question: And the “relative difference between the quantity of marker solute in normal versus neoplastic tissue” value [4]?
Answer: The value was “an order of magnitude”.

Question: And the “uptake by abnormal colon tissue” value [4]?
Answer: The value was “preferential or enhanced uptake”.

Question: What about the “Total (Cells/ml)” value ([5]; average of triplicate counting, control 5.30 × 10^6) of the same molecule?
Answer: The value was 4.70 × 10^6 Cells/ml.

Question: And the “Dead Cells” value ([5]; control 5.7%)?
Answer: The value was 8.5%.

Question: And the “Live Cells” value ([5]; control 94.3%)?
Answer: The value was 91.5%.

Question: Which “distribution of the chelate in bone” value [2] does the source give for `O=P(O)(O)CN1Cc2cccc(n2)CN(CP(=O)(O)O)Cc2cccc(n2)C1.[Tb]` [Tb-BP2P, terbium N,N'-bis(methylenephosphonic acid)-2,11,diaza[3.3]-(2,6)pyridinophane] here?
Answer: The value was “fairly uniform”.

Question: What does the source list for `O=P(O)(O)CN1CCN(CP(=O)(O)O)Cc2cccc(n2)CN(CP(=O)(O)O)CC1.[Tb]` [Tb-PCTMP, terbium 3,6,9-tris(methylenephosphonic acid)-3,6,9,15-tetraazabicyclo[9.3.1]pentadeca-1(13),11,13-triene]?
Answer: fluorescence in the organelle smear of dosed cells ([6]; control no discernible fluorescence): significant fluorescence was detected; fluorescence in the membrane smears ([6]; dosed and control cells): No signal was detected; visible emission of the isolated complex [7]: brilliant green visible emission; tissue uptake/selectivity [2]: skeletal system uptake; quantity per pixel, blue-purple contour ([8]; excised rat femur, FIG. 8): 1.54×10^-15 moles Tb-PCTMP/pixel; quantity per pixel, red contour ([8]; excised rat femur, FIG. 8): 3.35×10^-15 moles Tb-PCTMP/pixel; solute present in entire imaged region of the bone (surface) ([8]; rat femur, 2 hours): about 5.19 picomoles
